Tests used:
[1] = target: T1, progesterone receptor (PR) (Homo sapiens, UniProt P06401); conditions: cited from earlier work
T1 sequence (P06401 1-933): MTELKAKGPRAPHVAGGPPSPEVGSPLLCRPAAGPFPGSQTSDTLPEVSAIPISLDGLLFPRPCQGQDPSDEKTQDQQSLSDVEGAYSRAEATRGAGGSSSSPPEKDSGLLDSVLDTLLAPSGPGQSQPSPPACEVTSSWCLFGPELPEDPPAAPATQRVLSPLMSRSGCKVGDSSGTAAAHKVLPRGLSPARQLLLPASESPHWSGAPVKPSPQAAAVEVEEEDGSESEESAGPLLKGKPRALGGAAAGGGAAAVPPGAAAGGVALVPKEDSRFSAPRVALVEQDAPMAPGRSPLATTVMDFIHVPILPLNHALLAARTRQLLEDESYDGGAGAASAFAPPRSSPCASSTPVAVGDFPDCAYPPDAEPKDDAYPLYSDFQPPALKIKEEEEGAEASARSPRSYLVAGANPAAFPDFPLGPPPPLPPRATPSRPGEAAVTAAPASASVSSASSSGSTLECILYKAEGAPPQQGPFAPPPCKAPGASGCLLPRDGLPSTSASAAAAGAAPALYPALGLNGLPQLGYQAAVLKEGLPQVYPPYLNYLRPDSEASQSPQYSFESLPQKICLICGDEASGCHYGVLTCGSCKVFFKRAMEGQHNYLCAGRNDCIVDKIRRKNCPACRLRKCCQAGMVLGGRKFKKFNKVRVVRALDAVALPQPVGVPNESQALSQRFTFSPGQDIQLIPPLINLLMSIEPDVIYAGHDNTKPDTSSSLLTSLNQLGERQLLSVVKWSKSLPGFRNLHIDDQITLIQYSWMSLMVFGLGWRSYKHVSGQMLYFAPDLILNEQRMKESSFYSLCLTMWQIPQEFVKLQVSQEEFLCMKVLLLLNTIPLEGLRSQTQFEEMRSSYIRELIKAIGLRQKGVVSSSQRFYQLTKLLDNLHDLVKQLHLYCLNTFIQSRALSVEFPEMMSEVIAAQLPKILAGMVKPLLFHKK

progesterone receptor = target: T2, progesterone receptor (Homo sapiens, UniProt P06401); conditions: in comparison to RU 486; cited from earlier work
T2 sequence (P06401 1-933): T1 sequence (P06401 1-933)

[2] = Active ingredient release (dissolution) of 1 mg capsules and tablets; assay type: physicochemical; conditions: 0.3% SDS in water, paddle, 100 rpm
Description: The release values were compared in a test medium, which comprises 0.3% SDS in water, with paddle stirrIng, 100 rpm.
Active Ingredient Release:
Active ingredient release measured in 1000 mL water with 0.3% sodium dodecyl sulfate, 100 rpm
Content Determination by HPLC with external calibration
Column: LiChrosphere 5μ RP-18 encapped, 150×3 mm
Eluent: acetonitrile/water=45/55

[3] = in comparison to RU 486 (mifeprison); cited from earlier work
[4] = Stability of medicinal preparations under ICH conditions; assay type: physicochemical; conditions: 40° C., 70% relative humidity; decomposition of carbamate to nitrile
From the text: The carbamate functional group of the above-mentioned 11β-benz-aldoxim-estra-4,9-diene derivative decomposes to form a nitrile by splitting off ethylamine and CO2.

[5] = 1 mg capsule, microcrystalline J956, particle diameter X50 3.4 μm, X100 25 μm
[6] = 1 mg capsule, microcrystalline J956, particle diameter X50 5.2 μm, X100 30 μm
[7] = 1 mg capsule, microcrystalline J956, particle diameter X50 6.6 μm, X100 43 μm
[8] = 1 mg capsule, microcrystalline J956, particle diameter X50 8.7 μm, X100 43 μm
[9] = 1 mg capsule, microcrystalline J956, particle diameter X50 14.1 μm, X100 87 μm
[10] = 1 mg tablet, microcrystalline J956, particle diameter X50 10.6 μm, X100 73 μm
[11] = 1 mg capsule with micronized effective ingredient J956
[12] = 1 mg tablet with micronized effective ingredient J956

SMILES: CCNC(=O)ON=Cc1ccc(C2CC3(C)C(CCC3(COC)OC)C3CCC4=CC(=O)CCC4=C23)cc1 (stereo not drawn) [J956, 11β-{4-[(ethylamino-carbonyl)oximinomethyl]phenyl}-17β-methoxy-17α-methoxymethyl-estra-4,9-dien-3-one]
- activity in vivo at the progesterone receptor (PR) [1]: both agonistic and also antagonistic activity
- activity at the progesterone receptor (progesterone receptor): same activity as RU 486
- RELEASE in % 0 min [2, 5]: 0%
- RELEASE in % 10 min [2, 5]: 90.7%
- RELEASE in % 20 min [2, 5]: 97.3%
- RELEASE in % 30 min [2, 5]: 98.1%
- RELEASE in % 45 min [2, 5]: 99.9%
- RELEASE in % 0 min [2, 6]: 0%
- RELEASE in % 10 min [2, 6]: 89.8%
- RELEASE in % 20 min [2, 6]: 93.5%
- RELEASE in % 30 min [2, 6]: 93.4%
- RELEASE in % 45 min [2, 6]: 95.6%
- RELEASE in % 0 min [2, 7]: 0%
- RELEASE in % 10 min [2, 7]: 93.2%
- RELEASE in % 20 min [2, 7]: 95.9%
- RELEASE in % 30 min [2, 7]: 96.7%
- RELEASE in % 45 min [2, 7]: 96.8%
- RELEASE in % 0 min [2, 8]: 0%
- RELEASE in % 10 min [2, 8]: 93.5%
- RELEASE in % 20 min [2, 8]: 96.7%
- RELEASE in % 30 min [2, 8]: 98.5%
- RELEASE in % 45 min [2, 8]: 99.7%
- RELEASE in % 0 min [2, 9]: 0%
- RELEASE in % 10 min [2, 9]: 90.2%
- RELEASE in % 20 min [2, 9]: 95.3%
- RELEASE in % 30 min [2, 9]: 96.0%
- RELEASE in % 45 min [2, 9]: 96.3%
- RELEASE in % 0 min [2, 10]: 0%
- RELEASE in % 10 min [2, 10]: 73.7%
- RELEASE in % 20 min [2, 10]: 90.3%
- RELEASE in % 30 min [2, 10]: 91.85%
- RELEASE in % 45 min [2, 10]: 96.6%
- antiglucocorticoid activity [3]: considerably reduced antiglucocorticoid activity

SMILES: CCNC(=O)O/N=C/c1ccc([C@H]2C[C@@]3(C)[C@@H](CC[C@]3(COC)OC)[C@@H]3CCC4=CC(=O)CCC4=C32)cc1 [Micronizate]
- RELEASE in % 0 min [2, 11]: 0%
- RELEASE in % 10 min [2, 11]: 92.1%
- RELEASE in % 20 min [2, 11]: 94.3%
- RELEASE in % 30 min [2, 11]: 94.6%
- RELEASE in % 45 min [2, 11]: 94.9%
- RELEASE in % 0 min [2, 12]: 0%
- RELEASE in % 10 min [2, 12]: 92.1%
- RELEASE in % 20 min [2, 12]: 94.3%
- RELEASE in % 30 min [2, 12]: 94.6%
- RELEASE in % 45 min [2, 12]: 94.9%
- stability of effective ingredient in medicinal preparations under ICH [4]: not sufficiently stable

Reference: US7192942B2, “Process for production of crystals of 11μ-benzaldoxim-estra-4,9-diene derivatives, crystals obtained thereby and pharmaceutical preparations containing them” (Schering AG, priority 2002, dated 2007)
